One molecule from patent US8828678B2, “Self-immolative probes for enzyme activity detection” (Enzo Life Sciences, Inc., priority 2010, dated 2014) can be followed below.

SMILES strings stand for the structures.

One assay has as its system Jurkat cells. Briefly: Detection of hypoxia using flow cytometry. It is filed as cell-based, human. As to conditions: 5 μM CD-1, 1 μM CD-6, versus vehicle-treated loaded cells. The method, then:
HeLa and U-2 OS cells were cultured as described in Example 7. Human Jurkat T-cell leukemia cells (the A3 subclone) was obtained from ATCC and routinely cultured in RPMI-1640 medium (ATCC) supplemented with 10% fetal bovine serum (ATCC) and 100 U/ml penicillin+100 μg/ml streptomycin (Sigma-Aldrich). Cell cultures were maintained in an incubator at 37° C., with 5% CO2 atmosphere. CD-1, CD-4 and CD-6 self-immolative hypoxia probes were prepared as described in Example 8. All hypoxia inducers stocks were prepared as described in Example 7.
The day before the experiment, HeLa and U-2 OS cells were seeded in 6-well tissue culture plates at a density 5×10^5 cells/well. […] Post-treatment, the adherent cells (HeLa and U-2 OS) were collected by trypsinization, re-suspended in 0.5 mL of fresh PBS and analyzed using flow cytometry. Jurkat cells were analyzed without washing.
Flow cytometry experiments were performed using a FACS Calibur benchtop flow cytometer (BD Biosciences) equipped with a blue (488 nm) laser, and the fluorescence was recorded in the FITC (530/30 filter), PE (585/42 filter) and PerCP (670 LP filter) channels. Hypoxic cells were detected by detecting increases in fluorescence. The degree of hypoxia (Khyp) can be quantified by using Kolmogorov-Smirnov statistics (Young, 1977) or the following formula: Khyp=(MFIhyp−MFIcon)/MFIhyp, […]
For orientation: Flow cytometry measures light scatter and fluorescence of single cells or particles in a stream.

A further assay relates to HeLa cells. Briefly: Combined detection of hypoxia and redox status in live cells by fluorescent microscopy. The class given is cell-based, human. As to conditions: 5 μM; all four hypoxic samples (anoxia, CoCl2, DFO, DMOG). On the procedure:
HeLa and U-2 OS cells were cultured as described in Example 7. Stock solutions of CD-1 and CD-5 and various hypoxia inducers were prepared and stored as described in Examples 7 and 8. Additionally, 5 mM stock solutions (5000×) of 2′,7′-dichloro-fluorescein diacetate (DCFDA, an indicator of global ROS generation) and dihydroethidium (DHE, specific indicator of superoxide generation) were made in anhydrous DMF. DMSO was avoided, since this solvent is a hydroxyl radical scavenger and its presence may affect ROS/RNS production in cellular systems. The following stocks of ROS inducers were prepared in DMF: 10 mM pyocyanin (general ROS generating compound, 100×), 20 mM antimycin A (general ROS inducer, 400×), 50 mM pyrogallol (a superoxide radical generator, 1000×), 1 mM t-butyl hydroperoxide (TBHP, peroxide radical inducer, 10,000×). ROS probes and inducers were aliquoted and stored at −80° C.
The day before the experiment, the cells were seeded on 4-well microscope slides (Cel-Line™ Brand, Portsmouth, N.H.) at a density 1×10^4 cells/well (2×10^4 cells/cm^2). On the day of the experiment, the cells were preloaded with both hypoxia probe (5 μM final concentration in cell culture medium) and ROS detecting reagent with suitable spectral characteristics. Two ROS-detecting probes, DCFDA and DHE, were used in a pilot experiment in conjunction with hypoxia self-immolative probes. The hydrolyzed product of DCFDA, DCFH, is considered to be a general indicator of ROS, reacting with H2O2 (in the presence of peroxidases), ONOO^−, lipid hydroperoxides, and hydroxyl radicals. The oxidized product can be detected by strong fluorescence emission at around 525 nm when excited at around 488 nm. Because H2O2 is a secondary product of O2.^−, DCFH fluorescence has been used to implicate O2.^− production. The direct reaction of DHE with O2.^− yields a very specific fluorescent product, requiring no conversion to H2O2. The product of the DHE reaction with O2.^− fluoresces strongly at around 600 nm when excited at 500-530 nm.
Tested pairs of the probes were as follows: CD-5 with DCFDA or DHE, and CD-1 with DHE. A hypoxic state was induced in the cells as described in Example 7. Control slides were singly-stained with hypoxia or ROS-detecting probes only. Additional slides were treated with different general and specific ROS inducers and stained with ROS-detecting probes to control ROS staining. Post-treatment, the slides were washed twice with PBS, coverslipped and visualized using an Olympus BX-51 fluorescence microscope and a DAPI filter set (350 ex/470em) for CD-5, an FITC filter set (490ex/525em) for CD-1 or for total ROS detection reagent, and an orange filter set (550ex/620em) for HE.

As for `O=C(Nc1ccc2c(c1)Oc1cc(NC(=O)N3CCOCC3)ccc1C21OC(=O)c2ccccc21)OCc1ccc([N+](=O)[O-])cc1` (centres unmarked) [CD-1], the “fluorescence in Jurkat cells treated with chemical hypoxia inducers or subjected to anoxia” value with Jurkat cells is given as “fluorescence increase”. In addition, in the assay on HeLa cells, the “hypoxia probe fluorescent signal in hypoxic HeLa cells, multiplexed with ROS dyes” value was “bright fluorescent signal”.
